Among the data in the NIST ThermoML archive (doi:10.1021/acs.jced.7b00321) are viscosity and mass density values, retold here.

For the data set the following is noted: 101 kPa, Liquid; for viscosity: Capillary tube (Ostwald / Ubbelohde) method; for mass density: Vibrating tube method.

A word on the viscosity: it is the resistance of a fluid to flow. The mass density is the mass of a sample divided by its volume.

± gives the expanded uncertainty stated by the source.

As to `CCO` [ethanol], the viscosity is, setting by setting: (293.15 K) 1.17 ± 0.02 mPa·s; (303.15 K) 0.97 ± 0.02 mPa·s; (313.15 K) 0.81 ± 0.02 mPa·s; (323.15 K) 0.69 ± 0.02 mPa·s. In addition, the mass density came to 788.88 ± 1 kg/m3 (293.15 K), 781.69 ± 1 kg/m3 (303.15 K), 772.3 ± 1 kg/m3 (313.15 K) and 765.29 ± 1 kg/m3 (323.15 K).

In the case of `NCCCO` [3-amino-1-propanol], the viscosity reads like this: (293.15 K) 40.26 ± 0.86 mPa·s; (303.15 K) 24.03 ± 0.52 mPa·s; (313.15 K) 15.08 ± 0.32 mPa·s; (323.15 K) 10.01 ± 0.22 mPa·s. Besides, the mass density is 987.5 ± 1 kg/m3 (293.15 K), 979.45 ± 1 kg/m3 (303.15 K), 971.67 ± 1 kg/m3 (313.15 K) and 963.36 ± 1 kg/m3 (323.15 K).

As for `NCCNCCO` [N-(2-aminoethyl)ethanolamine], the viscosity worked out at 136.19 ± 3.6 mPa·s (293.15 K), 71.64 ± 1.6 mPa·s (303.15 K), 39.59 ± 0.86 mPa·s (313.15 K) and 23.41 ± 0.52 mPa·s (323.15 K). The mass density by setting is: (293.15 K) 1029.14 ± 1 kg/m3; (303.15 K) 1021.45 ± 1 kg/m3; (313.15 K) 1014.18 ± 1 kg/m3; (323.15 K) 1006.54 ± 1 kg/m3.

With `CC(O)CN` (stereo not given) [1-amino-2-propanol], the viscosity is, setting by setting: (293.15 K) 30.44 ± 0.65 mPa·s; (303.15 K) 17.87 ± 0.39 mPa·s; (313.15 K) 10.79 ± 0.23 mPa·s; (323.15 K) 6.99 ± 0.15 mPa·s. The mass density is recorded as 960.81 ± 1 kg/m3 (293.15 K), 952.25 ± 1 kg/m3 (303.15 K), 944.43 ± 1 kg/m3 (313.15 K) and 936.21 ± 1 kg/m3 (323.15 K).

Take `NCCNCCN` [di(2-aminoethyl)amine]: the viscosity runs as follows: (293.15 K) 6.99 ± 0.15 mPa·s; (303.15 K) 4.79 ± 0.1 mPa·s; (313.15 K) 3.45 ± 0.07 mPa·s; (323.15 K) 2.6 ± 0.06 mPa·s. Besides, the mass density is on record as 951.16 ± 1 kg/m3 (293.15 K), 942.19 ± 1 kg/m3 (303.15 K), 933.93 ± 1 kg/m3 (313.15 K) and 925.42 ± 1 kg/m3 (323.15 K).
